The results in this text go back to US20070082066A1, “Use of zeaxanthin to reduce light hyper-sensitivity, photophobia, and medical conditions relating to light hyper-sensitivity” (priority 2003, published 2007).

What all share (format): in vivo, human
Data set [1] concerns migraine or other severe headaches. Nature of the data set: Customer reports on frequency of migraine or other severe headaches. Conditions: a number of customers with migraine or recurrent headaches; zeaxanthin at 10 mg or more per day.
Data set [2] concerns sunburns. Nature of the data set: Summertime exposure to direct sunlight, sunburn protection. The conditions noted are these: oral, about 30 to about 80 mg/day, summer of 2002, direct sunlight. From the text:
Instead, this discovery arose out of observations that were made while zeaxanthin was being tried and evaluated by a number of people, to determine whether it could help protect the skin against sunburns. Because of various factors and events described in a separate patent application (Ser. No. 10/356,134, Gierhart et al; the contents of that application are incorporated herein by reference, as though fully set forth herein), the founder of ZeaVision (who is also one of the Inventors herein) became convinced that relatively high dosages of zeaxanthin, in the range of about 30 mg or greater per day, could increase the skin's ability to withstand direct sunlight without suffering a sunburn. Accordingly, several coworkers began taking zeaxanthin at dosages in a range of about 30 to about 80 mg/day, during the summer of 2002, to provide additional evaluation of the earliest results that had been seen.
(§1) Therefore, a patent application entitled “Protection Against Sunburn and Skin Problems with Orally-Ingested High-Dosage Zeaxanthin”, was drafted and filed in the autumn of 2002, as a provisional application, based on anecdotal evidence from several people. […] After those test data became available, the provisional patent application on sunburn prevention was expanded into a utility application.

In data set [3] the test system is light hyper-sensitivity. In words: Customer and user reports on light hyper-sensitivity after taking zeaxanthin. The text has this: When asked about it by the Applicants herein, they offered answers that were usually along the lines of, “I hadn't noticed that. But yeah, you're right. I haven't been wearing my sunglasses as much as I used to. I just don't feel like I need them as much, or as often.”
At roughly the same time, the customer service specialist at ZeaVision also began to receive sporadic comments from people who had purchased zeaxanthin capsules to treat or prevent macular degeneration.
These discoveries led the customer support staff at ZeaVision to begin routinely asking customers about light hyper-sensitivity, if they called in and wanted to discuss the visual improvements they were enjoying after they began taking zeaxanthin.

Data set [4] is described as follows: Safety and tolerability in users taking zeaxanthin for macular degeneration. Conditions: 20 mg/day, thousands of users over the past few years. From the text: If no results are noticed at that level within about 2 to 4 weeks, the person can try a somewhat higher dosage during the next 2-4 weeks.
Data set [5] relates to skin. In words: Indoor tests with medical-grade ultraviolet lamp, before-and-after minimal erythemal dosages. Conditions: high-dosage zeaxanthin, winter season.
Text: as §1

In the case of `CC1=C(/C=C/C(C)=C/C=C/C(C)=C/C=C/C=C(C)/C=C/C=C(C)/C=C/C2=C(C)C[C@@H](O)CC2(C)C)C(C)(C)C[C@H](O)C1` [zeaxanthin], in data set [1], the “frequency of migraine or other severe headaches” value is reported as “didn't seem to be having as many migraine or other severe headaches”. In data set [2], the risk of sunburns result is reported as “can indeed reduce the risk of sunburns”. The “light hyper-sensitivity, volunteered consumer comments” value in data set [3] (consumers who purchased zeaxanthin capsules to treat or prevent macular degeneration, after vs before taking) is on record as “suffering less from light hyper-sensitivity”. In data set [3] (high-dosage zeaxanthin, several people working with ZeaVision, family members and friends, spring of 2003), the “use of sunglasses when driving or outdoors” value is on record as “had stopped using their sunglasses so much”. Further, the “unusual and unpleasant levels of light sensitivity, routine customer questioning” value in data set [3] (nearly all of the roughly 30% of customers who reported light sensitivity, after they began taking zeaxanthin capsules) was “less severe and less troubling”. In addition, in data set [3] (nearly all patients who had reported increased light sensitivity, zeaxanthin at 10 mg or more per day), the “light sensitivity evaluated separately from vision clarity” value is on record as “improved, significantly”. In addition, the safety and tolerability entry in data set [4] is “safe and well-tolerated”. Moreover, the “skin-protective effects (minimal erythemal dosages before and after)” value in data set [5] was “strongly confirmed the skin-protective effects”.
